Measured values published in patent publication US20100166708A1, “ANTIMICROBIAL AND ANTI-INFLAMMATORY THERAPIES AND COMPOSITIONS” (THE REGENTS OF THE UNIVERSITY OF CALIFORNIA, priority 2007, published 2010).
Converted amounts (≈) assume the structure as drawn. “And” between values parts separate entries of the source, which are not always exact repeats. Equal entries are not always repeated. Where two headings read alike, the source gives them in different places.

What was measured:
GAS membranes = assay: SEM analysis of GAS membranes; assay type: cell-based, Group A Streptococcus; details: 16 μM peptide
[1] = From the text: Sequestration of tryptophan (Trp) can be observed through blue shift in wavelength of photon emission after excitation at 290 nm. […] (c) overlay of emission spectra.
(§1) Tryptophan emission is a sensitive indicator for the physical environment surrounding the amino acid (˜330 nm in a folded or hydrophobic environment; ˜355 nm in an unfolded or aqueous environment).

[2] = remark: listed apart in the source
From the text: as §1

[3] = ANTS/DPX leakage from lipid vesicles; details: incubated with lipid vesicles for 1 hour
Protocol: Both delta-haemolysin and PSMdelta were evaluated for their ability to perforate synthetic lipid vesicles. Lipid vesicles were made with a 2:1 molar ratio of POPC to POPG. The lipid vesicles, extruded through a 200 nm polycarbonate film, encapsulated the fluorescent dye, ANTS, and a quencher: DPX. Upon membrane perforation, ANTS/DPX are released and separated, allowing ANTS to fluoresce at 530 nm.

Q: Which results are given for `CC[C@H](C)[C@H](NC(=O)[C@H](Cc1c[nH]c2ccccc12)NC(=O)[C@H](CCCCN)NC(=O)[C@@H](NC(=O)[C@H](CC(C)C)NC(=O)[C@H](CC(=O)O)NC(=O)CNC(=O)[C@@H](NC(=O)[C@@H](NC(=O)[C@H](CO)NC(=O)[C@@H](NC(=O)[C@@H](NC(=O)[C@H](CC(=O)O)NC(=O)[C@H](C)NC(=O)[C@H](C)NC(=O)[C@@H](N)CCSC)[C@@H](C)CC)[C@@H](C)CC)[C@@H](C)O)[C@@H](C)CC)C(C)C)C(=O)N[C@H](C(=O)N[C@@H](CC(=O)O)C(=O)N[C@H](C(=O)N[C@H](C(=O)N[C@@H](CC(N)=O)C(=O)N[C@@H](CCCCN)C(=O)N[C@@H](Cc1ccccc1)C(=O)N[C@@H](CCCCN)C(=O)N[C@@H](CCCCN)C(=O)O)C(C)C)[C@@H](C)O)[C@@H](C)CC` [delta-haemolysin]?
A: membrane effect seen by SEM (GAS membranes): membrane blebbing and disruption; tryptophan emission ([1]; before incubation with lipid vesicles): 339 nm; tryptophan emission ([1]; incubation with lipid vesicles): 332 nm; tryptophan emission ([1]; lipid vesicles plus urea): 335 nm; deltaG^1(H2O) ([2]; 5 μM peptide): 1.43 kcal/mol; midpoint of the unfolding curve ([2]; 5 μM peptide): 2.14 M urea; deltaG^1(H2O) ([2]; 25 μM peptide): 1.57 kcal/mol; midpoint of the unfolding curve ([2]; 25 μM peptide): 3.20 M urea and 3.2 M urea; deltaG^1(H2O) ([2]; 25 μM peptide, figure legend): 1.57 kcal/mol; ANTS fluorescence at 530 nm (vesicle leakage) [3]: Dose-dependent fluorescence; MBC (GAS): 16 µM (≈ 45.1 µg/mL); MIC (GAS): 8 µM (≈ 22.6 µg/mL); MIC (GAS; listed as Synthetic delta-haemolysin): 16 µM (≈ 45.1 µg/mL); MIC of delta-haemolysin in the presence of PSMdelta (GAS; with 2 μM PSMdelta): 4 µM

Q: Which “membrane effect seen by SEM” value (GAS membranes) does the source give for CRAMP [reference compound] here?
A: Membrane disruption

Q: Which “ANTS fluorescence at 530 nm (vesicle leakage)” value [3] does the source give for “MSIVSTIIEVVKTIVDIVKKFKK (listed as Staphylococcus epidermidis) [PSMdelta, peptide identified in S. epidermidis fraction 37, tested as synthetic peptide]” here?
A: Dose-dependent fluorescence
